Data set [1] in a line: Single dose oral pharmacokinetics study in male Sprague Dawley rats. In kind it is in vivo, Rat. The conditions noted are these: for Plasma Concentration of Menaquinone-7, Mean (comparative table): G1: Menaquinone-7 oral.
Assay in data set [2]: as above
In kind it is in vivo, Rat. The following applies: for Plasma Concentration of Menaquinone-7, Mean (comparative table): G1: Menaquinone-7 oral; for Plasma Concentration of Menaquinone-7, Mean / Plasma Concentration of Menaquinone-7, individual animals: fasted. On the procedure: Male Sprague Dawley rats aged 8-10 weeks and weighing around 202-223 grams are used for in vivo testing. Animals are fasted overnight with free access to water. Animals are split into 4 groups G1 to G4, each group containing 3 rats. To determine the bioavailability, the test items are separately dissolved in corn oil to obtain homogenous formulations. Animals are administered with test items by oral gavage, animals of G1 received 1088 μg, G2 received 1073 μg, G3 and G4 received 1000 μg per kg body weight dose of compound Ia.1, m=9, n=7 (G1), of compound Ia.1, m=9, n=9 (G2), menaquinone-7 (G3) and menaquinone-9 (G4) respectively. The doses of Ia.1 (n=7) (G1), of Ia.1 (n=9) were adjusted for the menaquinol content. Blood samples are collected at various time points during the next 48 hours post dose.
Blood samples were collected and transferred to tubes containing K2EDTA and immediately placed on ice for plasma preparations. Plasma was prepared by centrifugation at 3500 g for 10 min, aliquots are frozen at −80° C. until analysis. Quantification of analyte in plasma is determined by LC-MS-MS analysis. Plasma PK parameters are calculated using WinNonlin software.
Approximately 5 mg of Menaquinone-7 was weighed and transferred to a graduated tube. Then 10 mL of sunflower oil was added and vortex mixed thoroughly until the test item is completely dissolved. The formulation was prepared in dark room under monochromatic light. The final strength of the formulation was 500 μg/mL. The formulation was prepared fresh before administration. […]

The nature of data set [3]: Clinical observations in the single dose oral pharmacokinetics study. The class given is in vivo, Rat. The following applies: oral 1000 μg per kg body weight, till 48 h post dose.
Another data set relates to caspase-3. The conditions noted are these: at a concentration of 10 mcmol/L; cited from earlier work.
Setting [4] is: Menaquinone-7 oral 1000 μg/kg b.w., sunflower oil.
Setting [5] is: Menaquinone-7 oral 1000 μg/kg b.w., sunflower oil, N 6.
The mark [6] stands for this setting: Menaquinone-7 oral 1000 μg/kg b.w., sunflower oil, time 0.00 h.
The mark [7] stands for this setting: Menaquinone-7 oral 1000 μg/kg b.w., sunflower oil, time 0.50 h.
Where [8] appears, read: Menaquinone-7 oral 1000 μg/kg b.w., sunflower oil, time 1.00 h.
The mark [9] stands for this setting: Menaquinone-7 oral 1000 μg/kg b.w., sunflower oil, time 2.00 h.
Setting [10] is: Menaquinone-7 oral 1000 μg/kg b.w., sunflower oil, time 4.00 h.
Setting [11] is: Menaquinone-7 oral 1000 μg/kg b.w., sunflower oil, time 6.00 h.
Where [12] appears, read: Menaquinone-7 oral 1000 μg/kg b.w., sunflower oil, time 8.00 h.
[13] abbreviates: Menaquinone-7 oral 1000 μg/kg b.w., sunflower oil, time 24.00 h.
The mark [14] stands for this setting: Menaquinone-7 oral 1000 μg/kg b.w., sunflower oil, time 48.00 h.

“And” between values parts separate entries of the source, which are not always exact repeats. Identical values can stand only once.

Take `CC(C)=CCC/C(C)=C/CC/C(C)=C/CC/C(C)=C/CC/C(C)=C/CC/C(C)=C/CC/C(C)=C/CC1=C(C)C(=O)c2ccccc2C1=O` [Menaquinone-7]: the “Plasma Concentration of Menaquinone-7, Mean (comparative table)” value in data set [1] (Time 0.25 h) stood at 0.00 ng/mL; in data set [1] (Time 24.00 h), 5 ng/mL; in data set [2] (Time 0.00 h), 0.00 ng/mL; in data set [2] (Time 0.50 h) it was 3 ng/mL; in data set [2] (Time 1.00 h) it was 11 ng/mL; in data set [2] (Time 2.00 h), 15 ng/mL. Further, the “Plasma Concentration of Menaquinone-7, Mean (comparative table)” value in data set [2] (Time 4.00 h) came to 14 ng/mL; in data set [2] (Time 6.00 h), 10 ng/mL; in data set [2] (Time 8.00 h), 6 ng/mL; in data set [2] (Time 48.00 h), 2 ng/mL. The “Tmax of Menaquinone-7 in plasma, individual animals” value in data set [1] (setting [4]) was 6 h and 8 h and 4 h and 2 h. Further, the “Cmax of Menaquinone-7 in plasma, Mean” value in data set [1] (setting [5]) is 19 ng/mL and 19.808 ng/mL and 19.81 ± 4.93 ng/mL. Moreover, the “AUClast of Menaquinone-7 in plasma, individual animals” value in data set [2] (setting [4]) is 352.16 ng·h/mL and 320.74 ng·h/mL and 166.19 ng·h/mL and 339.5 ng·h/mL and 211.72 ng·h/mL and 286.28 ng·h/mL. For the same compound, in data set [2] (setting [4]), the “Cmax of Menaquinone-7 in plasma, individual animals” value was 19.84 ng/mL and 13.25 ng/mL and 24.87 ng/mL and 23.02 ng/mL and 23.47 ng/mL and 14.4 ng/mL. In data set [2] (setting [4]), the “Half life of Menaquinone-7 in plasma, individual animals” value was 29.15 h and 30.91 h and 9.47 h and 21.96 h and 12.17 h and 35.05 h. Further, the “MRTlast of Menaquinone-7 in plasma, individual animals” value in data set [2] (setting [4]) is 19.94 h and 20.91 h and 8.55 h and 14.68 h and 9.02 h and 20.28 h. The “AUClast of Menaquinone-7 in plasma, Mean” value in data set [2] (setting [5]) was 279.428 ng·h/mL and 279.43 ± 74.91 ng·h/mL. For the same compound, in data set [2] (setting [5]), the “Half life of Menaquinone-7 in plasma, Mean” value is 23.118 h and 23.12 ± 10.46 h. Moreover, in data set [2] (setting [5]), the “MRTlast of Menaquinone-7 in plasma, Mean” value was 15.562 h and 15.56 ± 5.71 h. Also, in data set [2] (setting [5]), the “Tmax of Menaquinone-7 in plasma, Mean” value was 5.000 h and 5.00 ± 2.10 h. Also, the “Plasma Concentration of Menaquinone-7, Mean” value in data set [2] (setting [6]) is 0.00 ng/mL; in data set [2] (setting [7]) it was 0.00 ng/mL; in data set [2] (setting [8]), 3.23 ng/mL; in data set [2] (setting [9]) it was 11.83 ng/mL; in data set [2] (setting [10]), 15.64 ng/mL; in data set [2] (setting [11]), 14.62 ng/mL. In addition, the “Plasma Concentration of Menaquinone-7, Mean” value turned out to be 10.35 ng/mL in data set [2] (setting [12]), 5.70 ng/mL in data set [2] (setting [13]) and 2.36 ng/mL in data set [2] (setting [14]). Further, the “Plasma Concentration of Menaquinone-7, individual animals” value in data set [2] (setting [6]) is 0.00 ng/mL; in data set [2] (setting [7]), 0.00 ng/mL; in data set [2] (setting [8]) it was 0.00 ng/mL (2×) and 3.56 ng/mL and 5.64 ng/mL and 2.91 ng/mL and 7.26 ng/mL; in data set [2] (setting [9]), 3.21 ng/mL and 3.69 ng/mL and 9.07 ng/mL and 22.74 ng/mL and 17.91 ng/mL and 14.40 ng/mL; in data set [2] (setting [10]), 11.45 ng/mL and 7.00 ng/mL and 24.87 ng/mL and 154.39* ng/mL and 23.47 ng/mL and 11.40 ng/mL; in data set [2] (setting [11]), 19.84 ng/mL and 5.53 ng/mL and 13.11 ng/mL and 23.02 ng/mL and 15.09 ng/mL and 11.15 ng/mL. Moreover, the “Plasma Concentration of Menaquinone-7, individual animals” value in data set [2] (setting [12]) is 11.92 ng/mL and 13.25 ng/mL and 8.18 ng/mL and 8.40 ng/mL and 10.89 ng/mL and 9.43 ng/mL; in data set [2] (Menaquinone-7 oral 1000 μg/kg b.w., sunflower oil, time 12.00 h) it was 7.05 ng/mL and 5.90 ng/mL and 4.26 ng/mL and 10.00 ng/mL and 5.48 ng/mL and 4.87 ng/mL; in data set [2] (setting [13]) it was 8.16 ng/mL and 9.12 ng/mL and 3.00 ng/mL and 3.96 ng/mL and 4.84 ng/mL and 5.12 ng/mL; in data set [2] (setting [14]), 3.81 ng/mL and 3.03 ng/mL and 0.00 ng/mL (2×) and 2.74 ng/mL and 4.56 ng/mL. In data set [2] (after Menaquinone-7 administration, 1000 μg/kg body weight oral, in ng·h/mL), the “plasma exposure of Menaquinone-7” value came to 279.43±74.91. Moreover, in data set [3], the “Clinical Observations” value is given as “Rats showed no adverse clinical signs of toxicity”.

With vitamin K2 [VK2], the “decrease of the activity of caspase-3” value in the data set with caspase-3 is reported as 2.5 fold.

Source of the values: US12514871B2, “Pegylated menaquinol compositions and methods of treatment” (Epizon Pharma, Inc., priority 2022, dated 2026).
